Measurements published in patent US9714244B2, “Substituted pyrido[4,3-d]pyrimidines as Wee-1 inhibitors” (ALMAC DISCOVERY LIMITED, priority 2013, dated 2017).

How the values were obtained:
Assay type in all cases: biochemical
Wee-1 kinase = Wee-1 kinase (Homo sapiens (Human), UniProt P30291); test: Measurement of Wee-1 kinase activity (ADP-Glo); details: read-out: Wee-1 IC50 activity
AKT1 (PKB alpha) = AKT1 (PKB alpha) (Homo sapiens (Human), UniProt P31749); test: SelectScreen Kinase Profiling: AKT1; details: 300-350 nM
Description: (§1) Table 2 below highlights the selectivity of a representative compound of the invention against a panel of 50 kinases (assessed using the Invitrogen SelectScreen® Kinase Profiling Service).

AURKA (Aurora A) = AURKA (Aurora A) (Homo sapiens (Human), UniProt O14965); test: SelectScreen Kinase Profiling: AURKA; details: 300-350 nM
Description: as §1

CDK1/cyclin B = CDK1/cyclin B (Homo sapiens (Human), UniProt P06493); test: SelectScreen Kinase Profiling: CDK1/cyclin B; details: 300-350 nM
CDK1/cyclin B, sequence (P06493 whole entry): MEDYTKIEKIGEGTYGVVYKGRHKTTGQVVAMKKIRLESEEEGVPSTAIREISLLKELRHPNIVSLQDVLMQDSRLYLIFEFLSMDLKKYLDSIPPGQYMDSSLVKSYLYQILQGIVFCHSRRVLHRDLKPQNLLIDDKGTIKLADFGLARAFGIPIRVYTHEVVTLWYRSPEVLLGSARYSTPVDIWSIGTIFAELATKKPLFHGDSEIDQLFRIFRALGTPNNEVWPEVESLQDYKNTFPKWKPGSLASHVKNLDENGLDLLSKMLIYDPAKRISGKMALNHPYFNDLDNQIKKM
CDK1/cyclin B, sequence (P14635 whole entry partner): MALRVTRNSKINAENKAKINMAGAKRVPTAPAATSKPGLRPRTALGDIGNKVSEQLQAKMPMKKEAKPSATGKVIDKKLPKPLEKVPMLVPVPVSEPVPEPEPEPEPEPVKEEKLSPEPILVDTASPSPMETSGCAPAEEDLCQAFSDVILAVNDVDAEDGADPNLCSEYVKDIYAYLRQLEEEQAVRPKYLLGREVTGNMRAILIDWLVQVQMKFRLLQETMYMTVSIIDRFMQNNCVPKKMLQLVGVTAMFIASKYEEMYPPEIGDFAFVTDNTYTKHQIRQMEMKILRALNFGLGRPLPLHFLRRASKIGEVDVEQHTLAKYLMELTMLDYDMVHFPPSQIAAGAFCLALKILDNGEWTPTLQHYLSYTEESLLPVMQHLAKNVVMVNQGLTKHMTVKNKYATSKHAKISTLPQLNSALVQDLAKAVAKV
Description: as §1

CSNK2A1 (CK2 alpha 1) = CSNK2A1 (CK2 alpha 1) (Homo sapiens (Human), UniProt P68400); test: SelectScreen Kinase Profiling: CSNK2A1; details: 300-350 nM
CSNK2A1 (CK2 alpha 1), sequence (P68400 whole entry): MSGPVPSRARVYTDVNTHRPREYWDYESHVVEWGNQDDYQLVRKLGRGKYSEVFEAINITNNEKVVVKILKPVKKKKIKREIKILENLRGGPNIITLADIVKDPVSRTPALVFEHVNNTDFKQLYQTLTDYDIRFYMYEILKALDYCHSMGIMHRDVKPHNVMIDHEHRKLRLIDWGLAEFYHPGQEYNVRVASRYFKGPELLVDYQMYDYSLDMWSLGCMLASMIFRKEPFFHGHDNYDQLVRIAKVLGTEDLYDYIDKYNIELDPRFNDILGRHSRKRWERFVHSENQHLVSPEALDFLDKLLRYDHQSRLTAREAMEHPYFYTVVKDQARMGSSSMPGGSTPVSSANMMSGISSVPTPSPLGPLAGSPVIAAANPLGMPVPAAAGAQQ
Description: as §1

DYRK3 = DYRK3 (Homo sapiens (Human), UniProt O43781); test: SelectScreen Kinase Profiling: DYRK3; details: 300-350 nM
Description: as §1

EPHA2 = EPHA2 (Homo sapiens (Human), UniProt P29317); test: SelectScreen Kinase Profiling: EPHA2; details: 300-350 nM
Description: as §1

ERBB2 (HER2) = ERBB2 (HER2) (Homo sapiens (Human), UniProt P04626); test: SelectScreen Kinase Profiling: ERBB2; details: 300-350 nM
Description: as §1

GSK3B (GSK3 beta) = GSK3B (GSK3 beta) (Homo sapiens (Human), UniProt P49841); test: SelectScreen Kinase Profiling: GSK3B; details: 300-350 nM
Description: as §1

IGF1R = IGF1R (Homo sapiens (Human), UniProt P08069); test: SelectScreen Kinase Profiling: IGF1R; details: 300-350 nM
Description: as §1

KDR (VEGFR2) = KDR (VEGFR2) (Homo sapiens (Human), UniProt P35968); test: SelectScreen Kinase Profiling: KDR; details: 300-350 nM
KDR (VEGFR2), sequence (P35968 20-1356): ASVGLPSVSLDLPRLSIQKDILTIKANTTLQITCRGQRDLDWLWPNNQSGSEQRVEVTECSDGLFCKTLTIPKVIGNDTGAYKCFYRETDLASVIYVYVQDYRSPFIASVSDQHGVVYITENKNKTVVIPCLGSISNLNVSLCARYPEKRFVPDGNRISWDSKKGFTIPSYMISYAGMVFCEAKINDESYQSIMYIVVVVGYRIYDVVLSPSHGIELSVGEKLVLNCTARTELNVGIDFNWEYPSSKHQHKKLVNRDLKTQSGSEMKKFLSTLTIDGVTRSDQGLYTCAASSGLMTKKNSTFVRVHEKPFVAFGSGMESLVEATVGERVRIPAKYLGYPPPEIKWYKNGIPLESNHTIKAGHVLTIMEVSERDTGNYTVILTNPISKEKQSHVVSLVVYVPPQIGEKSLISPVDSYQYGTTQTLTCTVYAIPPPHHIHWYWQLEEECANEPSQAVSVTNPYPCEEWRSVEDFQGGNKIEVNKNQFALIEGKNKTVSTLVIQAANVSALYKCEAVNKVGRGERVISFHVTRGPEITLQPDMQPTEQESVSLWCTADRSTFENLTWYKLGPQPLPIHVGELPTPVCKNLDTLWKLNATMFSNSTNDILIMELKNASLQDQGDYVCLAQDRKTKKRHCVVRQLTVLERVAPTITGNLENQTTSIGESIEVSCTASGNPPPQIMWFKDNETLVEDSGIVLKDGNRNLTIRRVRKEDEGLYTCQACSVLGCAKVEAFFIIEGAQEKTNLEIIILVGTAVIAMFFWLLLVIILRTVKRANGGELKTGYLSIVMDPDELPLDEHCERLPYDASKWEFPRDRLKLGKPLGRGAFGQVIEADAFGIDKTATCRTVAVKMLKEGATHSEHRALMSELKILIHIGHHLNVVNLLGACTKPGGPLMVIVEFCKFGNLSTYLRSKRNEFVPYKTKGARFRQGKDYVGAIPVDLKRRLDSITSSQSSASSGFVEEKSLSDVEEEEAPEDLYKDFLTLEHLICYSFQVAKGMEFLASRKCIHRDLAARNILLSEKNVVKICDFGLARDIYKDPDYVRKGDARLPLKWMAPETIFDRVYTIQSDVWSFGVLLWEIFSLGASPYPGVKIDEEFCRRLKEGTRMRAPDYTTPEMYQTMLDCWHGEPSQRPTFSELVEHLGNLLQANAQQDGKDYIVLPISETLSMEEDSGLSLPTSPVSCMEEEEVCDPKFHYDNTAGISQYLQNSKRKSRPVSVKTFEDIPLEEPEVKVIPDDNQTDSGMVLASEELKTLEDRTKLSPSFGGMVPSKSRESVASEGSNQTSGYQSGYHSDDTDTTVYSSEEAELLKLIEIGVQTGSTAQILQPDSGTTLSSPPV
Description: as §1

KIT = KIT (Homo sapiens (Human), UniProt P10721); test: SelectScreen Kinase Profiling: KIT; details: 300-350 nM
Description: as §1

LCK = LCK (Homo sapiens (Human), UniProt P06239); test: SelectScreen Kinase Profiling: LCK; details: 300-350 nM
LCK, sequence (P06239 whole entry): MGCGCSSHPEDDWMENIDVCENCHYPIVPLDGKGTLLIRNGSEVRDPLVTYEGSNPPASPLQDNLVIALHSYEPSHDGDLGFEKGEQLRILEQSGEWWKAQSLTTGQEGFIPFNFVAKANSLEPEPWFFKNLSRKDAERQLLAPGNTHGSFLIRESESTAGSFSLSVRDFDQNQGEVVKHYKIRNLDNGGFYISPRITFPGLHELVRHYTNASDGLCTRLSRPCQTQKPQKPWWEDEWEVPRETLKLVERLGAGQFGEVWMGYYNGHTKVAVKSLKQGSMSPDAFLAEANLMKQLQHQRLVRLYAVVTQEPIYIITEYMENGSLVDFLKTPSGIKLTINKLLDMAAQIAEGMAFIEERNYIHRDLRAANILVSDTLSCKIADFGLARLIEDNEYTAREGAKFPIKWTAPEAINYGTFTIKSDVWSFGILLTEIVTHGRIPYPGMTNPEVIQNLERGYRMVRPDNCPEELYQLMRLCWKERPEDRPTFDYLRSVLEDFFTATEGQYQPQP
Description: as §1

MARK2 = MARK2 (Homo sapiens (Human), UniProt Q7KZI7); test: SelectScreen Kinase Profiling: MARK2; details: 300-350 nM
Description: as §1

PHKG2 = PHKG2 (Homo sapiens (Human), UniProt P15735); test: SelectScreen Kinase Profiling: PHKG2; details: 300-350 nM
Description: as §1

PLK1 = PLK1 (Homo sapiens (Human), UniProt P53350); test: SelectScreen Kinase Profiling: PLK1; details: 300-350 nM
PLK1, sequence (P53350 whole entry): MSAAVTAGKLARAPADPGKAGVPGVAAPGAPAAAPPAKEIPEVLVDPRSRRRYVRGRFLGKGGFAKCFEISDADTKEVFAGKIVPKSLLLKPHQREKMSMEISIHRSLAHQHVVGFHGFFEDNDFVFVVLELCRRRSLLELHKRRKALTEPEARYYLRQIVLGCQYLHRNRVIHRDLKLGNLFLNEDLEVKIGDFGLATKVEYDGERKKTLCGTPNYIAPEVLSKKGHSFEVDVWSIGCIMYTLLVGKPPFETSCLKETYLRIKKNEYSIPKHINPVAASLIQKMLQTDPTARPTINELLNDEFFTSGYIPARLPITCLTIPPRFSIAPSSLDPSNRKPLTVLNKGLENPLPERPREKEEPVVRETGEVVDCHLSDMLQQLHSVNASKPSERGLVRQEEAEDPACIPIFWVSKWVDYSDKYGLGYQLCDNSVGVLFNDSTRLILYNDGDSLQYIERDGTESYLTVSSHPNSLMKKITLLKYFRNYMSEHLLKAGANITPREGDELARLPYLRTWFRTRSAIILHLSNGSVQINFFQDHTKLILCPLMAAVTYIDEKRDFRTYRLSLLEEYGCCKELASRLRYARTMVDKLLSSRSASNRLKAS
Description: as §1

PRKACA (PKA) = PRKACA (PKA) (Homo sapiens (Human), UniProt P17612); test: SelectScreen Kinase Profiling: PRKACA; details: 300-350 nM
Description: as §1

PRKCB1 (PKC beta I) = PRKCB1 (PKC beta I) (Homo sapiens (Human), UniProt P05771); test: SelectScreen Kinase Profiling: PRKCB1; details: 300-350 nM
Description: as §1

RET = RET (Homo sapiens (Human), UniProt P07949); test: SelectScreen Kinase Profiling: RET; details: 300-350 nM
Description: as §1

SYK = SYK (Homo sapiens (Human), UniProt P43405); test: SelectScreen Kinase Profiling: SYK; details: 300-350 nM
Description: as §1

TEK (Tie2) = TEK (Tie2) (Homo sapiens (Human), UniProt Q02763); test: SelectScreen Kinase Profiling: TEK; details: 300-350 nM
TEK (Tie2), sequence (Q02763 23-1124): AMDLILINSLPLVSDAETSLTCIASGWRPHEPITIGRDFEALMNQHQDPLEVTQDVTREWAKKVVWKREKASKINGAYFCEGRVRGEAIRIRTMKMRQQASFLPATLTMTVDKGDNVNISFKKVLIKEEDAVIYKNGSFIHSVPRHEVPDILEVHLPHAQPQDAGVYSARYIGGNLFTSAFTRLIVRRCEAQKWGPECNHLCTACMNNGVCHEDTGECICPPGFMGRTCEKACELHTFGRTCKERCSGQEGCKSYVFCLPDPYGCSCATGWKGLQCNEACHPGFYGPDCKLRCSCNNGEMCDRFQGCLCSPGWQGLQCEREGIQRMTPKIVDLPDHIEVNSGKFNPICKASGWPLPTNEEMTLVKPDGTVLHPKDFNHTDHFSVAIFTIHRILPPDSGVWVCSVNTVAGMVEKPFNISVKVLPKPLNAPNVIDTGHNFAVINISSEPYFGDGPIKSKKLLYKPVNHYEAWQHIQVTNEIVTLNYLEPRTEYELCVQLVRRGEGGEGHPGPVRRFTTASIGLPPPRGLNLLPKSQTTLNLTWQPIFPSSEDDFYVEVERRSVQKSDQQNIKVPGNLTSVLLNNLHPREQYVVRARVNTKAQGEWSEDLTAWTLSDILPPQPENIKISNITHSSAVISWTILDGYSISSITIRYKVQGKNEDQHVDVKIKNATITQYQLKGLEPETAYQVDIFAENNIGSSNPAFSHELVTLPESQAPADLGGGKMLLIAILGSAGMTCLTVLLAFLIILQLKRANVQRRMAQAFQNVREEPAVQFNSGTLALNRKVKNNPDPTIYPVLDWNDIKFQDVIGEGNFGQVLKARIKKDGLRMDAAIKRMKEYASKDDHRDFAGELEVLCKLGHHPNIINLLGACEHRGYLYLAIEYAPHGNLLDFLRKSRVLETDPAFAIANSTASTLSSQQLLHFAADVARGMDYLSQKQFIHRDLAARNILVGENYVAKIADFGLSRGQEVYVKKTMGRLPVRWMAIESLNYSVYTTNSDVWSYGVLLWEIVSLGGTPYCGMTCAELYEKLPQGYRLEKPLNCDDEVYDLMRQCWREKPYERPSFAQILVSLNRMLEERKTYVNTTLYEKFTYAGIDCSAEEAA
Description: as §1

O=c1c2cnc(Nc3ccc(N4CCNCC4)cc3)nc2ccn1-c1c(Cl)cccc1Cl [Example 1, 6-(2,6-Dichlorophenyl)-2-((4-(piperazin-1-yl)phenyl)amino)pyrido[4,3-d]pyrimidin-5(6H)-one]
− (Inhibition <75% @ 300-350 nM): Inhibition AKT1 (PKB alpha) (AKT1 (PKB alpha)) | Inhibition AURKA (Aurora A) (AURKA (Aurora A)) | Inhibition CDK1/cyclin B (CDK1/cyclin B) | Inhibition CSNK2A1 (CK2 alpha 1) (CSNK2A1 (CK2 alpha 1)) | Inhibition DYRK3 (DYRK3) | Inhibition EPHA2 (EPHA2) | Inhibition ERBB2 (HER2) (ERBB2 (HER2)) | Inhibition GSK3B (GSK3 beta) (GSK3B (GSK3 beta)) | Inhibition IGF1R (IGF1R) | Inhibition KDR (VEGFR2) (KDR (VEGFR2)) | Inhibition KIT (KIT) | Inhibition LCK (LCK) | Inhibition MARK2 (MARK2) | Inhibition PHKG2 (PHKG2) | Inhibition PLK1 (PLK1) | Inhibition PRKACA (PKA) (PRKACA (PKA)) | Inhibition PRKCB1 (PKC beta I) (PRKCB1 (PKC beta I)) | Inhibition RET (RET) | Inhibition SYK (SYK) | Inhibition TEK (Tie2) (TEK (Tie2))
10 to 200 nM: IC50 (Wee-1 kinase)
